In patent US7943577B2, “Alpha-fetoprotein peptides and uses thereof” (Albany Medical College, priority 2001, dated 2011):
Entries after “also recorded” stand apart in the source; their conditions may differ. Square brackets hold non-standard residues; d marks the D form. Ends that are not written are not given here. Hyp = O=C(O)[C@@H]1C[C@@H](O)CN1

What was measured:
immature mouse uterus = assay: Immature mouse uterine growth assay; type: in vivo; details: for uterotrophic effect of agent alone: peptide even at a dose of 10 μg/mouse, FIG. 13a; for inhibition of the uterotrophic effect of estradiol: Pep 1 μg i.p. one hour before E2 0.5 μg i.p.; for inhibition of the uterotrophic effect of estradiol / inhibition of the uterotrophic effect of tamoxifen: FIG. 13b; for inhibition of the uterotrophic effect of tamoxifen: Pep 1 μg i.p. one hour before Tam 1.0 μg i.p.; for biological activity of gel filtration fraction of aged peptide: 1 μg i.p.
Protocol: Immature Mouse Uterine Growth Assay.
Differences between groups were evaluated, employing the non-parametric Wilcoxon Sum of Ranks test (one-sided).

[1] = tested on: MCF-7 human breast cancer xenografts; assay: Human breast cancer xenograft assay, MCF-7; type: in vivo; details: for tumor volumes versus E2 alone group (Wilcoxon ranks-sum test): MCF-7, day 30 (FIG. 7: 20 days and 30 days) after tumor implantation, p<0.05; for growth (tumor volume) of MCF-7 xenografts in E2-supplemented SCID mice: peptide 1 μg i.p. twice a day, tamoxifen 50 μg i.p. once a day, 30-day observation
Protocol: Human Breast Cancer Xenograft Assay. A bioassay for anti-breast cancer activity was performed according to Bennett et al. (23;24). Confluent MCF-7 human breast cancer cells were trypsinized into suspension and pelleted by centrifugation at 200×g. The pellet was then solidified into a fibrin clot by exposing it to 10 μl of fibrinogen (50 mg/ml) and 10 μl of thrombin (50 units/ml). The solid mass of MCF-7 cells was then cut into pieces 1.5 mm in diameter. A tumor segment of ˜1.5 mm in diameter was implanted under the kidney capsule of an immunodeficient ICR-SCID male mouse (Taconic Farms) that weighed about 25 g. Estrogen supplementation was accomplished by s.c. implantation of a silastic tubing capsule containing solid E2 inserted on the day of tumor implantation. Peptide was injected i.p. every twelve hours at a dose of 1 μg per mouse. Tumor growth was monitored during survival laparotomy at 10 day intervals by measurement of the diameters of the short (d) and long axes (D) of each tumor, using a dissecting microscope equipped with an ocular micrometer. Tumor volumes were calculated using the formula (π/6) (d)^2D, assuming the tumor shape to be an ellipsoid of revolution around its long axis (D). There were five to seven replicate mice included in each treatment group. Mean tumor volume±standard error in each group was calculated for display of growth curves. Significance of differences between groups were tested using the one-sided Wilcoxon Sum of Ranks Test.

[2] = tested on: MCF-7/Tam human breast cancer xenografts; assay: Human breast cancer xenograft assay, tamoxifen-resistant MCF-7 subline; type: in vivo; details: for growth (tumor volume) of tamoxifen-resistant MCF-7 subline xenografts in E2-supplemented SCID mice: peptide 1 μg i.p. twice a day, tamoxifen 50 μg i.p. once a day, 30-day observation
Protocol: (§1) Cell Lines. T47D and MDA-231 human breast cancer cell lines were purchased from the American Type Culture Collection (Manassas, Va.). Growth medium for T47D cells consisted of RPMI 1640 (Life Technologies, Germantown, Md.) supplemented with 10% fetal bovine serum (Life Technologies) and 8 μg/ml bovine insulin (Sigma, St. Louis, Mo.). […] The MCF-7 cell line was obtained from Dr. Alberto C. Baldi, Institute of Experimental Biology and Medicine, Buenos Aires, Argentina, and was maintained as previously described by Gierthy et al. (1991). […] Human Breast Cancer Xenograft Assay. A bioassay for anti-breast cancer activity was performed according to Bennett et al. (23;24). […] The pellet was then solidified into a fibrin clot by exposing it to 10 μl of fibrinogen (50 mg/ml) and 10 μl of thrombin (50 units/ml). The solid mass of MCF-7 cells was then cut into pieces 1.5 mm in diameter. A tumor segment of ˜1.5 mm in diameter was implanted under the kidney capsule of an immunodeficient ICR-SCID male mouse (Taconic Farms) that weighed about 25 g. […] Peptide was injected i.p. every twelve hours at a dose of 1 μg per mouse. Tumor growth was monitored during survival laparotomy at 10 day intervals by measurement of the diameters of the short (d) and long axes (D) of each tumor, using a dissecting microscope equipped with an ocular micrometer. […] There were five to seven replicate mice included in each treatment group. Mean tumor volume±standard error in each group was calculated for display of growth curves. Significance of differences between groups were tested using the one-sided Wilcoxon Sum of Ranks Test.

[3] = tested on: T47D human breast cancer xenografts; assay: Human breast cancer xenograft assay, T47D; type: in vivo; details: for growth (tumor volume) of T47D xenografts in E2-supplemented SCID mice: peptide 1 μg i.p. twice a day, 30-day observation
Protocol: as §1

[4] = tested on: MDA-MB-231 human breast cancer xenografts; assay: Human breast cancer xenograft assay, MDA-MB-231; type: in vivo; details: for growth (tumor volume) of ER− MDA-MB-231 xenografts: peptide 1 μg i.p. twice a day, tamoxifen 50 μg i.p. once a day, 30-day observation
Protocol: as §1

[5] = in vivo; cited from earlier work
[6] = tested on: MCF-7 breast cancer cells; details: ERα-positive breast cancer (MCF-7) cells; Background of Example IV; cited from earlier work
[7] = tested on: human breast cancer lines; details: DeFreest et al., J Pept Res 63:409-419, 2004; cited from earlier work
[8] = target: T1, estrogen receptor (rabbit uterine cytosol) (Oryctolagus cuniculus, UniProt G1SML6); assay: Assessment of estrogen receptor antagonism ([3H]estradiol binding)
T1 sequence (G1SML6 1-598): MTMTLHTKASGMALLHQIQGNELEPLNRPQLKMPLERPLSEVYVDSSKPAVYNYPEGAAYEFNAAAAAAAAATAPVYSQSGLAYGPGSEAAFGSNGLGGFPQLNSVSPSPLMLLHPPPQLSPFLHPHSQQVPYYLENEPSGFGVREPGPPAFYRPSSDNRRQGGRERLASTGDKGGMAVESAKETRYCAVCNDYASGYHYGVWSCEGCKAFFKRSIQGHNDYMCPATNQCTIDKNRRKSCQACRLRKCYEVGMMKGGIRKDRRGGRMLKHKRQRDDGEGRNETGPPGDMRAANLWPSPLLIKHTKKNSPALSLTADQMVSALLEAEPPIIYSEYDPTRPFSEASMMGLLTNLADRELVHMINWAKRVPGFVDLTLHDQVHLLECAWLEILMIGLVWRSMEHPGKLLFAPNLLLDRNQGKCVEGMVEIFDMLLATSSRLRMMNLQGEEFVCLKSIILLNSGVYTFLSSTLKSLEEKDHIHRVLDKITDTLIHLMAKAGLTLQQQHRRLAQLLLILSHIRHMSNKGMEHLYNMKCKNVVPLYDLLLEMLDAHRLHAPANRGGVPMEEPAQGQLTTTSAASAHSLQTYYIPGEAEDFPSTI
Protocol: Assessment of Estrogen Receptor Antagonism. Commercially obtained rabbit uteri (Pel-Freez Biological, Rogers, A R) were used as a source of estrogen receptor. Uteri were pulverized in a stainless steel impact mortar under liquid nitrogen and homogenized (20% w/v) in assay buffer (10 mM Tris (pH 7.4), 1.5 mM EDTA, 10% glycerol, 10 mM monothioglycerol, and 10 mM sodium molybdate] on ice. Centrifugation (50,000×g) for 1 h yielded a supernatant containing cytosol, which was adjusted with assay buffer to 2.5 mg protein/ml. All incubations were carried out in triplicate, each containing 100 μl of cytosol, 20 μl of […] 6,7-[3H]estradiol (50 Ci/mmol; DuPont Pharmaceuticals Company, Wilmington, Del., U.S.A.), and 80 μl of putative antagonist in assay buffer. Total count tubes received 20 μl of [3H]estradiol and 180 μl of assay buffer. After incubation overnight at 4° C., all but the total count tubes received 300 μl of dextran-coated charcoal suspension; tubes were agitated for 15 min and then centrifuged (1,000×g) for 15 min. Supernatants were decanted into counting vials, scintillant was added, and protein-bound tritium was determined by liquid scintillation counting.

Q: Which results are given for `CC/C(=C(\c1ccccc1)c1ccc(OCCN(C)C)cc1)c1ccccc1` [tamoxifen]?
A: uterotrophic effect of agent alone (immature mouse uterus; i.p.): stimulate the growth of the immature mouse uterus; tumor volumes versus E2 alone group (Wilcoxon ranks-sum test) [1]: significantly different; growth (tumor volume) of MCF-7 xenografts in E2-supplemented SCID mice [1]: prevented growth; also recorded: no increase in tumor volume; growth (tumor volume) of tamoxifen-resistant MCF-7 subline xenografts in E2-supplemented SCID mice [2]: resistant to tamoxifen in vivo; also recorded: only minimally effective; growth (tumor volume) of T47D xenografts in E2-supplemented SCID mice [3]: prevented growth; growth (tumor volume) of ER− MDA-MB-231 xenografts [4]: Neither peptide nor tamoxifen were effective; also recorded: did not affect the growth; users with uterine cancer as side effect [5]: 0.2%

Q: For Cyclo[EMTOVNOGQ], which “expression of estrogen receptor-α (ERα)” value [6] is on record?
A: Its value is “downregulation of expression of estrogen receptor-α (ERα)”.

Q: And the “proliferation of human breast cancer lines in immunocompromised mice” value [7]?
A: The value was “inhibit proliferation of human breast cancer lines”.

Q: Which results are given for “EMTOVNOG (EMT[Hyp]VN[Hyp]G; listed as Homo sapiens) [SEQ ID NO: 4]”?
A: inhibition of the uterotrophic effect of estradiol (immature mouse uterus; listed as Pep): significantly different; inhibition of the uterotrophic effect of estradiol (immature mouse uterus; listed as peptide): inhibited the uterotrophic effect of tamoxifen as well as that of estradiol; inhibition of the uterotrophic effect of tamoxifen (immature mouse uterus): significantly inhibited tamoxifen's uterotrophic effect; inhibition of the uterotrophic effect of tamoxifen (immature mouse uterus; listed as Pep): significantly different; inhibition of the uterotrophic effect of tamoxifen (immature mouse uterus; listed as peptide): inhibited the uterotrophic effect of tamoxifen; uterotrophic effect of agent alone (immature mouse uterus; i.p.): no uterotrophic effect whatsoever; tumor volumes versus E2 alone group (Wilcoxon ranks-sum test) [1]: significantly different; growth (tumor volume) of MCF-7 xenografts in E2-supplemented SCID mice [1]: prevented growth; also recorded: no significant increase in tumor volume; tumor volumes versus E2 alone group (Wilcoxon Ranks Sum Test) ([2]; MCF-7 subline made resistant to tamoxifen, day 30, p<0.05): significantly different; growth (tumor volume) of tamoxifen-resistant MCF-7 subline xenografts in E2-supplemented SCID mice [2]: completely prevented the xenograft growth; also recorded: completely stopped the growth; tumor volumes versus E2 alone group (Wilcoxon Ranks Sum Test) ([3]; T47D, day 30, p<0.05): significantly different; growth (tumor volume) of T47D xenografts in E2-supplemented SCID mice [3]: completely prevented tumor growth; differences in tumor volumes between groups ([4]; MDA-MB-231, FIG. 11): no differences in tumor volumes; growth (tumor volume) of ER− MDA-MB-231 xenografts [4]: Neither peptide nor tamoxifen were effective; also recorded: had no effect on the growth; competition/interference with estrogen binding to the estrogen receptor ([8]; cell-free system): does not interfere with the binding of [^3H]estradiol to the estrogen receptor; interference with E2 binding to ER ([8]; peptide concentration range of 10^−10M to 10^−5M): no interference with E2 binding to ER

Q: With “EMTPVNPG (listed as Homo sapiens) [SEQ ID NO: 6]” as the molecule, how does the “biological activity of stored inactive peptide after brief treatment with 4M urea” value (immature mouse uterus) read?
A: The value was “regenerated by 4M urea”.

Q: Which “biological activity of stored inactive peptide after brief treatment with 4M urea” value (immature mouse uterus) does the source give for “QMTPVNPG (listed as Homo sapiens) [SEQ ID NO: 2]” here?
A: Its value is “restored its biological activity”.

Q: What about the “% Inhibition of E2-Stimulated Growth of Immature Mouse Uterus ± SE” value (immature mouse uterus; Stored over 1 year (lyophilized, −20° C.), 1 μg per mouse i.p.) of the same molecule?
A: The value was 0 ± 2%.

Q: And the “biological activity of gel filtration fraction of aged peptide” value (immature mouse uterus; higher molecular weight fraction (FIG. 2b, left side of peak))?
A: The value was “biologically inactive”.

Q: And the “optimal dose for inhibition of estrogen-stimulated growth of mouse uterus” value (immature mouse uterus; i.p., FIG. 1a)?
A: Its value is 1 μg/mouse.

Q: And the “biological activity of gel filtration fraction of aged peptide” value (immature mouse uterus; lower molecular weight fraction (FIG. 2b, right side of peak))?
A: Its value is “active”.

Q: What about the “anti-estrotrophic activity as a function of storage time (shelf-life)” value (immature mouse uterus; stored at −20° C. in the lyophilized state, 1 μg per mouse, FIG. 1b) of the same molecule?
A: Its value is “diminished to insignificant levels after five weeks of storage”.

Q: And the “biological activity of aged peptide” value (immature mouse uterus; stored in the lyophilized state at −20° C. for over one year)?
A: Its value is “completely biologically inactive”.
